The values below come from publication PMC9835529, “Investigation of Novel Quinoline–Thiazole Derivatives as Antimicrobial Agents: In Vitro and In Silico Approaches” (ACS Omega, 2022).

For one data set, the system named is E. coli ATCC 25922. Description: Antibacterial broth microdilution (CLSI M07-A9), MIC90. The data set is classed as cell-based. The note with it: for MIC90: Escherichia coli, ATCC25922. From the text:
(§1) The broth microdilution procedure specified in the M07-A9 document of the Clinical and Laboratory Standards Institute (CLSI) was used for antibacterial study,[55] and the EDef 7.1 document published by EUCAST was used for the antifungal study.[56] For both activity studies, the detailed procedures were explained in previous studies.[57],[58]
Background: Dilution methods test growth across graded concentrations, often in twofold steps.

Data set [1] relates to Escherichia coli ATCC 35218. Described as above. The data set is classed as cell-based. The settings on record: E. coli ATCC 35218; for MIC90: Escherichia coli, ATCC35218.
Excerpt: as §1

Data set [2] concerns Klebsiella pneumoniae NCTC 9633. Described as above. The data set is classed as cell-based. The note with it: NCTC9633, K. pneumoniae NCTC 9633.
Excerpt: as §1

Data set [3] relates to Salmonella typhimurium ATCC 13311. The data set is described as above. In kind it is cell-based. The settings on record: Salmonella enterica; S. typhimurium ATCC 13311.
Excerpt: as §1

In data set [4] the test system is Staphylococcus aureus ATCC 6538. The data set is described as above. In kind it is cell-based. The note with it: Staphylococcus aureus, ATCC6538; S. aureus ATCC 6538; read-out: MIC90.
Excerpt: as §1

Data set [5] has as its system methicillin-resistant S. aureus (MRSA) (clinical isolate). The data set is described as above. The data set is classed as cell-based. The note with it: for MIC90: Staphylococcus aureus.
Excerpt: as §1

The subject of data set [6] is Candida albicans ATCC 24433. Description: Anticandidal broth microdilution (EUCAST EDef 7.1), MIC90. The data set is classed as cell-based. The settings on record: Candida albicans, ATCC24433, C. albicans ATCC 24433; read-out: MIC90. The text has this: (§2) E. coli (ATCC 35218), E. coli (ATCC 25922), S. aureus (ATCC 6538), methicillin-resistant S. aureus (MRSA) (clinical isolate), S. typhimurium (ATCC 13311), and K. pneumoniae (NCTC 9633) cells for antibacterial effect, and C. albicans (ATCC 24433), C. glabrata (ATCC 90030), C. krusei (ATCC 6258), and C. parapsilosis (ATCC 22019) for the antifungal effect of the final compounds were used to determine the MIC90 values. The broth microdilution procedure specified in the M07-A9 document of the Clinical and Laboratory Standards Institute (CLSI) was used for antibacterial study,[55] and the EDef 7.1 document published by EUCAST was used for the antifungal study.[56] For both activity studies, the detailed procedures were explained in previous studies.[57],[58]

The test system of the next data set is Candida krusei ATCC 6258. The data set is described as above. The data set is classed as cell-based. The note with it: Pichia kudriavzevii, ATCC6258, C. krusei ATCC 6258; read-out: MIC90.
Excerpt: as §2

For data set [7], the system named is Candida parapsilosis ATCC 22019. The data set is described as above. The data set is classed as cell-based. The note with it: Lodderomyces parapsilosis, ATCC22019, C. parapsilosis ATCC 22019; read-out: MIC90.
Excerpt: as §2

In another data set the test system is C. glabrata ATCC 90030. The description is as above. In kind it is cell-based, Candida glabrata. The note with it: Nakaseomyces glabratus, ATCC90030, C. glabrata ATCC 90030.
Excerpt: as §2

Another data set concerns NIH/3T3 cells. In words: Cytotoxicity on NIH/3T3 healthy cell line. The settings on record: Mus musculus, NIH3T3, 24 h incubation. In kind it is cell-based. Here is the method:
NIH/3T3 cells were incubated in Dulbecco’s modified Eagle’s medium (DMEM) (Sigma-Aldrich, St. Louis, MO), added with fetal calf serum, penicillin (100 IU/mL), streptomycin ([…]), and 7.5% NaHCO3 at 37 °C in a humidified atmosphere of 95% air and 5% CO2. NIH/3T3 cells were seeded into the 96-well plates at a density of 1 × 10^4 cells. After 24 h of incubating period, the culture media were removed, and test compounds were added. After 24 h of incubation period, colorimetric measurements were performed by a microplate reader (Biotek) at 540 nm. Inhibition % at all concentrations was determined using the formula below, and the IC50 values were calculated from a dose–response curve obtained by plotting the percentage inhibition versus the log concentration with the use of Microsoft Excel 2013.

The target of another data set is T1, E. coli DNA gyrase (Escherichia coli, UniProt P0AES4+P0AES6).
T1 construct: purchased TopoGen SKU TG2000G-3
Description: DNA-gyrase supercoiling inhibition by electrophoresis (TopoGen kit). The settings on record: relaxed pHOT1 DNA. In kind it is biochemical. Here is the method:
DNA gyrase obtained from E. coli was used to detect the inhibition of the superhelix activity of DNA gyrase. The method was performed according to the kit protocol described by the supplier (SKU TG2000G-3, TopoGen). The detailed procedures were explained in the previous study.[62]

The subject of data set [8] is Lanosterol 14α-demethylase (LMD, CYP51A1). In words: LDM (CYP51A1) inhibition by LC-MS-MS quantification of ergosterol level. In kind it is cell-based. The settings on record: C. krusei. Here is the method: The activity of the target compounds was tested against Candida strains via the determination of ergosterol production.
Ergosterol level was determined using the extract of total sterols from C. albicans (and its other species) following the method described by Breivik and Owades.[63] Quantification of the ergosterol level in this extract was carried out by the recently described method.[58],[64]−[66] According to these described studies, in the current work, compounds 4b, 4e, 4f, and 4h–m were undertaken to investigate their action mechanism. Thus, the LC-MS-MS-based method that quantifies the ergosterol level was applied. […]. Ergosterol quantity in negative control samples was regarded as 100%. All concentrations were analyzed in quadruplicate, and the results were expressed as mean ± standard deviation (SD).

Converted amounts (≈) assume the structure as drawn.

T1 sequence (P0AES4 whole entry, one chain of several): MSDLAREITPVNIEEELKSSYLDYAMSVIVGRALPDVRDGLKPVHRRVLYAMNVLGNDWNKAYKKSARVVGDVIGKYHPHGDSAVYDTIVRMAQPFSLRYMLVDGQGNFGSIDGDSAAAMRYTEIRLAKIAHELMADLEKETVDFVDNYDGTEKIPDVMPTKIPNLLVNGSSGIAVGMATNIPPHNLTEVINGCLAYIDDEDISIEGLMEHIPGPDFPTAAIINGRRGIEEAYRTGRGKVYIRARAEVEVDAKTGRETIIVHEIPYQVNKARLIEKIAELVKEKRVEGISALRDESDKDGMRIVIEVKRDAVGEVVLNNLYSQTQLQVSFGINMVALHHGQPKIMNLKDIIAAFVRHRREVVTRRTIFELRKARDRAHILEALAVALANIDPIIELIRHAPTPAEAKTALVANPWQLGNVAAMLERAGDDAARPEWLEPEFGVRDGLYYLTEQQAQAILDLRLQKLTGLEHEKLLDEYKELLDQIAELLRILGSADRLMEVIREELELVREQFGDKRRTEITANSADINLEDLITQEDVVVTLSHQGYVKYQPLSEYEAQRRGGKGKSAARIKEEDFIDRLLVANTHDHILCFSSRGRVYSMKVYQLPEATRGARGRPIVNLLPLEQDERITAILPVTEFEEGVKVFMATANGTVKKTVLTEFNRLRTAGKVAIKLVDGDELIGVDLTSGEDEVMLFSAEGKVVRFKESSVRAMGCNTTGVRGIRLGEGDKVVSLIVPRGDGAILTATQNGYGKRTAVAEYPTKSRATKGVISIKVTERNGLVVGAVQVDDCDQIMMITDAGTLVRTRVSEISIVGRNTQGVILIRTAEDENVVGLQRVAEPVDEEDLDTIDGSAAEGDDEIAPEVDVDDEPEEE

As to `COc1ccc(-c2csc(N/N=C/c3cc4cc(OC)ccc4nc3Cl)n2)cc1` [4g], the melting point (in general, the temperature of the solid-liquid transition) is 176 to 180 °C. In addition, in the data set with E. coli ATCC 25922, the “times more effective than chloramphenicol (MIC90)” value is “four times”; the MIC90 (as a rule, an inhibitory concentration at the 90% level, which refers to growth in some studies and to a panel of isolates in others) worked out at 3.91 µg/mL (≈ 9.2 µM). Further, in data set [1], the “times more effective than chloramphenicol (MIC90)” value is “four times” and the MIC90 amounted to 7.81 µg/mL (≈ 18.4 µM). In data set [2], this compound yielded an MIC90 of more than 1000 µg/mL. The compound further came in with an MIC90 in [3] of more than 1000 µg/mL. In addition, the MIC90 in data set [4] came out at 7.81 µg/mL (≈ 18.4 µM). In data set [5], the “times more effective than the standard drug chloramphenicol (MIC90)” value came out at 8 and the MIC90 came to 3.91 µg/mL (≈ 9.2 µM). The MIC90 in [6] was more than 1000 µg/mL. The MIC90 in the data set with Candida krusei ATCC 6258 is 31.2 µg/mL (≈ 73.5 µM). The MIC90 in [7] worked out at 3.91 µg/mL (≈ 9.2 µM). In the data set on C. glabrata ATCC 90030, this compound had an MIC90 of 15.6 µg/mL (≈ 36.8 µM). In addition, the IC50 (commonly the concentration that gives 50% inhibition) in the data set with NIH/3T3 cells is 10.4 ± 0.22 µM. Moreover, the “DNA-gyrase inhibition (electrophoresis image)” value on E. coli DNA gyrase is “no peak belonging to the supercoiled DNA”.
With `COc1ccc2nc(Cl)c(C=NNc3nc(-c4cccc5ccccc45)cs3)cc2c1` [4m], the melting point is 174 to 179 °C. For the same compound, in the data set with E. coli ATCC 25922, the “times more effective than chloramphenicol (MIC90)” value is “twice” and the MIC90 worked out at 7.81 µg/mL (≈ 17.6 µM). Also, in data set [1], the “times more effective than chloramphenicol (MIC90)” value is recorded as “four times” and the MIC90 is 7.81 µg/mL (≈ 17.6 µM). For the same compound, the MIC90 in data set [2] is more than 1000 µg/mL. Also, the MIC90 in data set [3] was more than 1000 µg/mL. Further, the MIC90 in data set [4] was 7.81 µg/mL (≈ 17.6 µM). In data set [5], the “times more effective than the standard drug chloramphenicol (MIC90)” value is listed as 4 and the MIC90 is 7.81 µg/mL (≈ 17.6 µM). Besides, in [6], the MIC90 came out at 1.95 µg/mL (≈ 4.38 µM). Besides, the MIC90 with Candida krusei ATCC 6258 is not above 0.06 µg/mL. For the same compound, the MIC90 in [7] is 0.24 µg/mL (≈ 0.539 µM). The MIC90 with C. glabrata ATCC 90030 is 1.95 µg/mL (≈ 4.38 µM). The IC50 in the data set on NIH/3T3 cells is 34.5 ± 0.88 µM. Also, the “DNA-gyrase inhibition (electrophoresis image)” value on E. coli DNA gyrase is reported as “no peak belonging to the supercoiled DNA”. Moreover, the “effect on ergosterol production / LMD enzyme inhibition (in words)” value in [8] was “showed their anticandidal activity via LMD enzyme inhibition”. Besides, the “CYP51A1 Inhibition%” value in [8] (0.06 μg/mL) is on record as 48.431 ± 2.036%. Moreover, the “CYP51A1 Inhibition%” value in data set [8] (0.24 μg/mL) was 61.289 ± 1.461%. The “CYP51A1 Inhibition%” value in [8] (0.98 μg/mL) came out at 70.574 ± 2.648%.
